Test results reported in patent publication US20260216197A1, “WRN HELICASE INHIBITOR” (SUZHOU PUHE BIOPHARMA CO., LTD., priority 2022, published 2026).

Key:
WRN helicase = WRN helicase (Homo sapiens, UniProt Q14191); assay: WRN helicase hydrolysis/unwinding of double-stranded DNA (fluorescence); type: biochemical
Description: The activity of the molecules of the present disclosure on the hydrolysis of double-stranded PP-6TR DNA by WRN helicase was tested.
The working solution and buffer were prepared, and the test compound was dissolved in DMSO followed by a4-fold dilution (with a final concentration of 10 μM as the starting concentration). Then, 0.2 μL of the test compound solution was added to a384-well plate, followed by 10 μL of (2×) WRN enzyme solution. The mixture was incubated in the dark for 30 minutes, after which 10 μL of substrate detection solution containing double-stranded DNA was added to initiate the reaction (DNA length: 19 bp, labeled with TAMRA at the 3′ end and BHQ2 at the 5′ end). The mixture was incubated at room temperature for 60 minutes. The inhibitory activity (IC50) against the WRN enzyme was calculated based on the fluorescence change (Ex530/Em590) between the blank group (DMSO) and the compound group.

[1] = test system: MSI-H colorectal cancer SW48 cell line; assay: 2D anti-proliferative activity, MSI-H SW48 cells (CTG, 5 days); type: cell-based
Description: The molecules of the present disclosure were tested for their anti-proliferative activity against MSI-H tumor cells.
The proliferation of tumor cells with microsatellite instability MSI-H is sensitive to WRN inhibitors, while the proliferation of microsatellite stable (MSS) tumor cells is insensitive to WRN inhibitors. By testing the activities of the two, it is shown that the molecules of the present disclosure have an inhibitory and synthetic lethal effect on WRN at the cellular level.
(§1) The MSI-unstable SW48 colorectal cancer cells were cultured in RPMI 1640 medium containing 10% FBS and 1% penicillin-streptomycin in a 37° C., 5% CO2 constant temperature incubator. A 40 μL cell suspension was added to each well of a 384-well microplate. Using Echo, 40 nL of compounds at different concentrations was dispensed into each well, followed by incubation in a 37° C., 5% CO2 constant temperature incubator for 5 days. Then, 40 μL of CTG solution (Promega, Cat No. G7573) was added to each well, and the plate was incubated in the dark in a 37° C., 5% CO2 constant temperature incubator for 30 minutes. Luminescence was measured using an Envision multi-function microplate reader (Perkin Elmer, Model: Envision 2104). The luminescent signal was proportional to the amount of ATP in the system, and the amount of ATP directly represented the number of living cells in the system.

[2] = test system: MSS colorectal cancer HT-29 cell line; assay: 2D anti-proliferative activity, MSS HT-29 cells (CTG, 5 days); type: cell-based
Description: The molecules of the present disclosure were tested for their anti-proliferative activity against MSS tumor cells.
as §1, with “MSS HT-29” for “MSI-unstable SW48”, “McCoy's 5A” for “RPMI 1640”

[3] = Liver microsome stability test; type: in vitro ADME; conditions: human liver microsomes 0.5 mg/mL, compound 1 μM, NADPH 1 mM, 60 minutes
Description: The liver microsome stability test of the compounds is as follows:
The compounds of the present disclosure were subjected to a liver microsome stability test. The compounds to be tested were co-incubated with liver microsomes of different species with or without the addition of NADPH. The final concentration of the compounds to be tested in the test system was 1 μM, the final concentration of NADPH was 1 mM, and the final concentration of liver microsomes was 0.5 mg/mL.

[4] = Pharmacokinetic evaluation in mice; type: in vivo, CD1 female mice
Description: CD1 female mice were used as test animals and the drug was administered orally/intravenously (oral dosage: 10 mg/kg, intravenous dosage: 2 mg/kg).
Assay protocol: The oral group consisted of 3 mice per group (vehicle: 10% Hβ-CD-pH7.4), and the intravenous group consisted of 3 mice per group. […] The blood concentrations in plasma after oral and intravenous administration of mice were determined by LC/MS/MS, respectively.

[5] = test system: SW 48 (MSI-H) colorectal cancer cells; assay: In vivo pharmacodynamic assay, SW48 xenograft in nude mice; set-up: species or system BALB/c nude mice; conditions: 120 mg/kg, QD, oral
Description: In vivo pharmacodynamic assay in BALB/c nude mice. Details are as follows:
SW 48 (MSI-H) colorectal cancer cells were cultured (L15 medium with 10% fetal bovine serum), and then inoculated into 6-8-week old female BALB/c nude mice (weighing about 20 g), wherein all mice were inoculated subcutaneously. The mice were cultured in an SPF-grade experimental environment, and all mice had free access to commercially certified standard diets. When the average tumor volume of the mice grew to about 150 mm^3, the test compound was orally administered daily. The dosage was as follows: blank group vehicle (10% HP-β-CD aqueous solution, pH-7). The dosage of the administration group was 120 mg/kg, 50 mg/kg, or 20 mg/kg, once a day. The tumor volume was measured with a two-dimensional caliper three times a week, and the animals were weighed every day. […] The tumor volume was calculated using the formula: V=½a*b^2, where a represents the long diameter of the tumor, and b represents the short diameter of the tumor.

WRN helicase, sequence (Q14191 whole entry): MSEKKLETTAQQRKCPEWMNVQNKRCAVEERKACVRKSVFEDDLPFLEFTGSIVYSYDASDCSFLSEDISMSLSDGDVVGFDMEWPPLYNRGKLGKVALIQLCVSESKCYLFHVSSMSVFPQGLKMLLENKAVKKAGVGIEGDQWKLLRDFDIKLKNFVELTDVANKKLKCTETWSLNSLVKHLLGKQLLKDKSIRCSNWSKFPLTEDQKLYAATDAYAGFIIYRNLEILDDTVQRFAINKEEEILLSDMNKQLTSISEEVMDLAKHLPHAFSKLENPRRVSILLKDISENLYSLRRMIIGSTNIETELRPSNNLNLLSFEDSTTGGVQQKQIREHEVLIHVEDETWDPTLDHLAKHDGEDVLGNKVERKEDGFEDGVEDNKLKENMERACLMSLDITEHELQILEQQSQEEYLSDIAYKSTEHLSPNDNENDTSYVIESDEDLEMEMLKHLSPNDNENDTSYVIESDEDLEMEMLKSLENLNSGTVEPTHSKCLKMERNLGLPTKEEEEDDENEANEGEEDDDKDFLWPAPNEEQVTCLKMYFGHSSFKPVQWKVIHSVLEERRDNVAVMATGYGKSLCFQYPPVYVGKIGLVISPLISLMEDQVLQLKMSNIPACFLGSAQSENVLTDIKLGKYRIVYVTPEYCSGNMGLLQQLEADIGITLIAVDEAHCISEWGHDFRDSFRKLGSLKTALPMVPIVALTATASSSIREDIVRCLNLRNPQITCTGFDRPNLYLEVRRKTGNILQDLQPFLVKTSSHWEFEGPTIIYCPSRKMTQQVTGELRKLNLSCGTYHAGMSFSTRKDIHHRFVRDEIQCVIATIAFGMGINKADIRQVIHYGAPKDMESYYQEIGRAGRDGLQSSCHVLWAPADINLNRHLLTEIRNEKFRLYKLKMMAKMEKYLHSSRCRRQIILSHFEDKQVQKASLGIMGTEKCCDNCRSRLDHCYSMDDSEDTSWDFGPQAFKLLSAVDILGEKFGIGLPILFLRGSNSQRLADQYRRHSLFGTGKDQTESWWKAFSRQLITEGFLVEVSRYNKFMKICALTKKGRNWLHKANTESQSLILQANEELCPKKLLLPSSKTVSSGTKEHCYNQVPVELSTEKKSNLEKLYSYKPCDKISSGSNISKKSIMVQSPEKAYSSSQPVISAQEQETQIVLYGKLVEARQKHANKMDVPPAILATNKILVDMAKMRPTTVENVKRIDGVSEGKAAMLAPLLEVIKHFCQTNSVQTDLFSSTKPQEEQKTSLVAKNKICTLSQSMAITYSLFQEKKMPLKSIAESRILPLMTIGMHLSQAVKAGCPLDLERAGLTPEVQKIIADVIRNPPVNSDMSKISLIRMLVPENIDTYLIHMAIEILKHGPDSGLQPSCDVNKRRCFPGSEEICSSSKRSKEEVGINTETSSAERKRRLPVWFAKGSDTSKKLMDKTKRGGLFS

IC50 (WRN helicase): 1.5 nM | IC50 ([1]; 5 days): 55 nM | IC50 [2]: > 10000 nM | Human Clint μL/min/mg Protein [3]: 14.8 μL/min/mg Protein | Human Clint/(mL/min/kg) [3]: 18.5 mL/min/kg | in vivo exposure compared with reference molecule A1 [4]: higher in vivo exposure | AUC0-24 ([4]; IV 2 mg/kg): 1421 ng·h/mL | C0 ([4]; IV 2 mg/kg): 3299 ng/mL | Cl ([4]; IV 2 mg/kg): 23.4 mL/min/kg | T1/2 ([4]; IV 2 mg/kg): 1.6 h | AUC0-24 ([4]; PO 10 mg/kg): 5599 ng·h/mL | Cmax ([4]; PO 10 mg/kg): 4645 ng/mL | T1/2 ([4]; PO 10 mg/kg): 1.2 h | Tmax ([4]; PO 10 mg/kg): 0.5 h | F ([4]; PO 10 mg/kg vs IV 2 mg/kg): 79%
Compound: CCc1c(N2CCN(C(=O)c3ncnc(C)c3O)CC2)c(=O)n2nc(C3=CCOCC3)nc2n1CC(=O)Nc1ccc(C(F)(F)F)c2ccsc12 [Compound H1]
Average value/ Inhibition rate ([1]; 0.038146973 nM): −7.8792 | Test 1/ Inhibition rate ([1]; 0.038146973 nM): −7.3699 | Test 2/ Inhibition rate ([1]; 0.038146973 nM): −8.3885 | Average value/ Inhibition rate ([1]; 0.152587891 nM): −7.2326 | Test 1/ Inhibition rate ([1]; 0.152587891 nM): −8.9847 | Test 2/ Inhibition rate ([1]; 0.152587891 nM): −5.4804 | Average value/ Inhibition rate ([1]; 0.610351563 nM): −7.2423 | Test 1/ Inhibition rate ([1]; 0.610351563 nM): −8.9821 | Test 2/ Inhibition rate ([1]; 0.610351563 nM): −5.5025 | Average value/ Inhibition rate ([1]; 2.44140625 nM): −1.2893 | Test 1/ Inhibition rate ([1]; 2.44140625 nM): −5.0894 | Test 2/ Inhibition rate ([1]; 2.44140625 nM): 2.5108 | Average value/ Inhibition rate ([1]; 9.765625 nM): −9.8115 | Test 1/ Inhibition rate ([1]; 9.765625 nM): −9.6799 | Test 2/ Inhibition rate ([1]; 9.765625 nM): −9.9432 | inhibitory activity on SW48 cells ([1]; 39 nM): high inhibitory activity | Average value/ Inhibition rate ([1]; 39.0625 nM): 12.6131 | Test 1/ Inhibition rate ([1]; 39.0625 nM): 9.3323 | Test 2/ Inhibition rate ([1]; 39.0625 nM): 15.8938 | Average value/ Inhibition rate ([1]; 156.25 nM): 98.3044 | Test 1/ Inhibition rate ([1]; 156.25 nM): 98.4846 | Test 2/ Inhibition rate ([1]; 156.25 nM): 98.1243 | Average value/ Inhibition rate ([1]; 625 nM): 98.5020 | Test 1/ Inhibition rate ([1]; 625 nM): 98.3268 | Test 2/ Inhibition rate ([1]; 625 nM): 98.6771 | Average value/ Inhibition rate ([1]; 2500 nM): 99.9213 | Test 1/ Inhibition rate ([1]; 2500 nM): 99.6262 | Test 2/ Inhibition rate ([1]; 2500 nM): 100.2164 | Average value/ Inhibition rate ([1]; 10000 nM): 100.6963 | Test 1/ Inhibition rate ([1]; 10000 nM): 100.7430 | Test 2/ Inhibition rate ([1]; 10000 nM): 100.6495 | TGI [5]: 105% | Tumor volume (mm^3)-D 1 ([5]; day 1): 171 mm^3 | Tumor volume (mm^3)-D 21 ([5]; day 21): 28 mm^3
